The structures appear in SMILES notation.

This experiment addresses T1, LXRβ (Homo sapiens, UniProt P55055).
T1 construct: Co-transfection expression plasmids, comprising full-length LXRα (pCMX-h LXRα or LXRβ (pCMX-hLXRβ)); expressed in transfected cells; host or cells: CV-1 African green monkey kidney cells, transient transfection with pCMX-hLXRβ
T1 sequence (P55055 1-460): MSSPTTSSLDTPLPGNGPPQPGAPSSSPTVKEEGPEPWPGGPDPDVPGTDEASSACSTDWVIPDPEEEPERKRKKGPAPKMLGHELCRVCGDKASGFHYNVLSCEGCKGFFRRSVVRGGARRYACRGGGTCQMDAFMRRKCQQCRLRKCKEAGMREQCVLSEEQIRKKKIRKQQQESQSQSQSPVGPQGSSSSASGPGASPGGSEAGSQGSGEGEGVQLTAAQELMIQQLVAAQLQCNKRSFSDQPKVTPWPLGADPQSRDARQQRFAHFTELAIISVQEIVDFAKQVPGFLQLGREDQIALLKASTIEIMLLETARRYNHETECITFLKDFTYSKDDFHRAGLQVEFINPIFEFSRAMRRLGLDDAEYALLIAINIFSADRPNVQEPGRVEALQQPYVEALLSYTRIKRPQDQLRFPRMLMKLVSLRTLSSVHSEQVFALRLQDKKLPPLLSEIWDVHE
T1 sequence (P19793 1-462 partner): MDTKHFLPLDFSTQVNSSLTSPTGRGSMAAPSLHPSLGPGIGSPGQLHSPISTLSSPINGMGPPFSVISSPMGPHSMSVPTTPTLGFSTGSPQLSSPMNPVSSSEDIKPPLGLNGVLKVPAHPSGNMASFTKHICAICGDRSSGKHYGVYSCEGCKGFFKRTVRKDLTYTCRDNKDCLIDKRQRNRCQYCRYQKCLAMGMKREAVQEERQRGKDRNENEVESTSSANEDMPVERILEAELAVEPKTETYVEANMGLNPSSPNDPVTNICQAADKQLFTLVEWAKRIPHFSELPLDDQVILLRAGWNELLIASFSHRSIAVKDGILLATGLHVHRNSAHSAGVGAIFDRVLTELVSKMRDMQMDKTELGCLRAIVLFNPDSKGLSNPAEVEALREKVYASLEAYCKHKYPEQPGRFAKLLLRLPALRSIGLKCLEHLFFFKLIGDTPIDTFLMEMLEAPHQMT
Briefly: LXR/LXRE co-transfection assay (luciferase reporter) in CV-1 cells, LXRβ. It counts as cell-based. The conditions noted are these: for EC50: CV-1 cells transfected with pCMX-hLXRβ and LXREx1-Tk-Luciferase, 20 hours incubation, read-out: LXRbeta agonism EC50; for Emax: CV-1 cells, relative to maximum response of high control N-(3-((4-fluorophenyl)-(naphthalene-2-sulfonyl)amino)propyl)-2,2-dimethylpropionamide, read-out: LXRbeta % EFFICACY
The method in brief:
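Luciferase read-out after 20 h compound treatment at 37 °C of CV-1 cells carrying transfected hLXRβ plus one-copy LXRE reporter, endogenous RXR partnering. Sigmoidal fit of 10-point half-log curves (4 wells each) gave EC50; % efficacy versus maximal response of the propionamide reference agonist.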

With `Cc1nc(-c2ccc3c(c2)OC(F)(F)O3)c(-c2cc(-c3cc(F)c(CO)c(S(C)(=O)=O)c3)ccc2-c2cc(C(=O)NC(C)(C)C#N)nn2C)o1` [Example 55, N-(2-cyanopropan-2-yl)-5-(3-(4-(2,2-difluorobenzo[d][1,3]dioxol-5-yl)-2-methyloxazol-5-yl)-3′-fluoro-4′-(hydroxymethyl)-5′-(methylsulfonyl)biphenyl-4-yl)-1-methyl-1H-pyrazole-3-carboxamide], the EC50 was determined as 761 nM and the Emax stood at 24%.

Turning to `Cc1nc(-c2ccc(Cl)cc2Cl)c(-c2cc(-c3cccc(S(C)(=O)=O)c3)ccc2-n2ccc(C(F)(F)F)n2)o1` [Example 337, 4-(2,4-dichlorophenyl)-2-methyl-5-(3′-(methylsulfonyl)-4-(3-(trifluoromethyl)-1H-pyrazol-1-yl)biphenyl-3-yl)oxazole], the EC50 was found to be 178 nM and the Emax was 77%.

For `Cc1nc(-c2ccc3c(c2)OC(F)(F)O3)c(-c2cc(-c3cccc(S(C)(=O)=O)c3)ccc2-c2cc(CC(C)(C)O)nn2C)o1` [Example 121, 1-(5-(3-(4-(2,2-difluorobenzo[d][1,3]dioxol-5-yl)-2-methyloxazol-5-yl)-3′-(methylsulfonyl)-[1,1′-biphenyl]-4-yl)-1-methyl-1H-pyrazol-3-yl)-2-methylpropan-2-ol], the EC50 was 175 nM and the Emax stood at 40%.

On to `Cc1nc(-c2ccc3c(c2)OC(F)(F)O3)c(-c2cc(-c3cc(F)c(CO)c(S(C)(=O)=O)c3)ccc2-c2cc(C(C)(C)C(N)=O)nn2C)o1` [Example 65, 2-(5-(3-(4-(2,2-difluorobenzo[d][1,3]dioxol-5-yl)-2-methyloxazol-5-yl)-3′-fluoro-4′-(hydroxymethyl)-5′-(methylsulfonyl)biphenyl-4-yl)-1-methyl-1H-pyrazol-3-yl)-2-methylpropanamide], for which the 50% effective concentration (EC50) was 67 nM and the Emax stood at 55%.

Turning to `Cc1nc(-c2ccc3c(c2)OC(F)(F)O3)c(-c2cc(-c3cc(F)c(CO)c(S(C)(=O)=O)c3)ccc2-n2ccc(C(N)=O)n2)o1` [Example 360, 1-(3-(4-(2,2-difluorobenzo[d][1,3]dioxol-5-yl)-2-methyloxazol-5-yl)-3-fluoro-4′-(hydroxymethyl)-5′-(methylsulfonyl)-[1,1′-biphenyl]-4-yl)-1H-pyrazole-3-carboxamide], the EC50 is 263 nM and the Emax came out at 12%.

With `Cc1nc(-c2ccc(OC(F)(F)F)cc2)c(-c2cc(-c3cccc(S(C)(=O)=O)c3)ccc2-n2ccc(C#N)n2)o1` [Example 318, 1-(3-(2-methyl-4-(4-(trifluoromethoxy)phenyl)oxazol-5-yl)-3′-(methylsulfonyl)biphenyl-4-yl)-1H-pyrazole-3-carbonitrile], the concentration giving a half-maximal response (EC50) was 246 nM and the Emax came to 84%.

Turning to `Cc1nc(-c2ccc(OC(F)(F)F)cc2)c(-c2cc(-c3cccc(C(C)(C)C#N)c3)ccc2-n2ccc(C(F)(F)F)n2)o1` [Example 342, 2-methyl-2-(3′-(2-methyl-4-(4-(trifluoromethoxy)phenyl)oxazol-5-yl)-4′-(3-(trifluoromethyl)-1H-pyrazol-1-yl)biphenyl-3-yl) propanenitrile], the EC50 turned out to be 432 nM and the Emax amounted to 46%.

Turning to `CS(=O)(=O)c1cccc(-c2ccc(-n3ccc(C(N)=O)n3)c(-c3oc(C4CC4)nc3-c3ccc(OC(F)(F)F)cc3)c2)c1` [Example 361, 1-(3-(2-cyclopropyl-4-(4-(trifluoromethoxy)phenyl)oxazol-5-yl)-3′-(methylsulfonyl)-[1,1′-biphenyl]-4-yl)-1H-pyrazole-3-carboxamide], the EC50 came out at 652 nM and the Emax is 12%.

Consider `Cc1nc(-c2ccc3c(c2)OC(F)(F)O3)c(-c2cc(-c3cc(F)c(CO)c(S(C)(=O)=O)c3)ccc2-c2cc(C(F)(F)C(=O)NC3CC3)nn2C)o1` [Example 88, N-cyclopropyl-2-(5-(3-(4-(2,2-difluorobenzo[d][1,3]dioxol-5-yl)-2-methyloxazol-5-yl)-3′-fluoro-4′-(hydroxymethyl)-5′-(methylsulfonyl)biphenyl-4-yl)-1-methyl-1H-pyrazol-3-yl)-2,2-difluoroacetamide], for which the EC50 was determined as 85 nM and the Emax was determined as 49%.

In the case of `Cc1nc(-c2cc(-c3cccc(S(C)(=O)=O)c3)ccc2-n2nc(C(F)(F)F)cc2C2CC2)c(-c2ccc(OC(F)(F)F)cc2)o1` [Example 312, 4-(4-(5-cyclopropyl-3-(trifluoromethyl)-1H-pyrazol-1-yl)-3′-(methylsulfonyl)biphenyl-3-yl)-2-methyl-5-(4-(trifluoromethoxy)phenyl)oxazole], the EC50 is 798 nM and the Emax stood at 34%.

For `Cc1nc(-c2ccc3c(c2)OC(F)(F)O3)c(-c2cc(-c3cccc(S(C)(=O)=O)c3)ccc2-n2ccc(C#N)n2)o1` [Example 362, 1-(3-(4-(2,2-difluorobenzo[d][1,3]dioxol-5-yl)-2-methyloxazol-5-yl)-3′-(methylsulfonyl)-[1,1′-biphenyl]-4-yl)-1H-pyrazole-3-carbonitrile], the EC50 amounted to 64 nM and the Emax was 22%.

In the case of `Cn1nc(C(C)(F)F)cc1-c1ccc(-c2cc(F)c(CO)c(S(C)(=O)=O)c2)cc1-n1nncc1-c1ccc(OC(F)(F)F)cc1` [Example 21, {4′-[3-(1,1-difluoroethyl)-1-methyl-1H-pyrazol-5-yl]-3-fluoro-5-(methylsulfonyl)-3′-(5-{4-[(trifluoromethyl)oxy]phenyl}-1H-1,2,3-triazol-1-yl)biphenyl-4-yl}methanol], the EC50 came to 22 nM and the Emax is 82%.

Consider `Cc1nc(-c2ccc3c(c2)OC(F)(F)O3)c(-c2cc(-c3cc(F)c(CO)c(S(C)(=O)=O)c3)ccc2-c2cc(C3(C#N)CC3)nn2C)o1` [Example 60, 1-(5-(3-(4-(2,2-difluorobenzo[d][1,3]dioxol-5-yl)-2-methyloxazol-5-yl)-3′-fluoro-4′-(hydroxymethyl)-5′-(methylsulfonyl)-[1,1′-biphenyl]-4-yl)-1-methyl-1H-pyrazol-3-yl)cyclopropanecarbonitrile], for which the concentration giving a half-maximal response (EC50) amounted to 7 nM and the Emax is 85%.

With `Cn1nc(C(F)(F)C(C)(C)O)cc1-c1ccc(-c2cccc(S(C)(=O)=O)c2)cc1-n1nncc1-c1ccc(Cl)cc1` [Example 31, 1-(5-(3-(5-(4-chlorophenyl)-1H-1,2,3-triazol-1-yl)-3′-(methylsulfonyl)-[1,1′-biphenyl]-4-yl)-1-methyl-1H-pyrazol-3-yl)-1,1-difluoro-2-methylpropan-2-ol], the 50% effective concentration (EC50) stood at 568 nM and the Emax is 50%.

For `Cc1nc(-c2ccc3c(c2)OC(F)(F)O3)c(-c2cc(-c3cc(F)c(CO)c(S(C)(=O)=O)c3)ccc2-c2cc(C(F)(F)C(=O)NC(C)(C)C)nn2C)o1` [Example 84, N-tert-butyl-2-(5-(3-(4-(2,2-difluorobenzo[d][1,3]dioxol-5-yl)-2-methyloxazol-5-yl)-3′-fluoro-4′-(hydroxymethyl)-5′-(methylsulfonyl)biphenyl-4-yl)-1-methyl-1H-pyrazol-3-yl)-2,2-difluoroacetamide], the half-maximal effective concentration (EC50) was 61 nM and the Emax worked out at 26%.

`Cc1nc(-c2ccc(OC(F)(F)F)cc2)c(-c2cc(-c3cc(F)c(CO)c(S(C)(=O)=O)c3)ccc2-n2ccc(C(=O)NCC(F)(F)F)n2)o1` [Example 372]: the EC50 was 123 nM and the Emax came to 38%.

As to `CCOc1cc(C(F)(F)F)nn1-c1ccc(-c2cccc(S(C)(=O)=O)c2)cc1-c1nc(C)oc1-c1ccc(OC(F)(F)F)cc1` [Example 311, 4-(4-(5-ethoxy-3-(trifluoromethyl)-1H-pyrazol-1-yl)-3′-(methylsulfonyl)biphenyl-3-yl)-2-methyl-5-(4-(trifluoromethoxy)phenyl)oxazole], the EC50 came out at 798 nM and the Emax stood at 37%.

With `Cc1nc(-c2ccc(C(F)(F)F)cc2)c(-c2cc(-c3cccc(S(C)(=O)=O)c3)ccc2-n2cc(Cl)c(C(F)(F)F)n2)o1` [Example 437, 5-(4-(4-chloro-3-(trifluoromethyl)-1H-pyrazol-1-yl)-3′-(methylsulfonyl)-[1,1′-biphenyl]-3-yl)-2-methyl-4-(4-(trifluoromethyl)phenyl)oxazole], the 50% effective concentration (EC50) was 321 nM and the Emax came out at 49%.
